Assay results published in US20140073628A1, “BENZOXAZEPINES ASN INHIBITORS OF P13K/M TOR AND METHODS OF THEIR USE AND MANUFACTURE” (priority 2010, published 2014).

Key:
mTOR/GbL/Raptor (mTORC1) = mTOR/GbL/Raptor (mTORC1) (Homo sapiens, UniProt P42345); experiment: mTOR/GbL/Raptor (mTORC1) ELISA assay; format: biochemical; conditions: phosphorylation of 4E-BP1; 0.2 nM mTORC1, 10 μM ATP, 50 nM NHis-tagged 4E-BP1
Protocol: mTOR/GbL/Raptor (mTORC1) ELISA Assay
The measurement of mTORC1 enzyme activity was performed in an ELISA assay format following the phosphorylation of 4E-BP1 protein. All experiments were performed in the 384-well format. Generally, 0.5 μL DMSO containing varying concentrations of the test compound was mixed with 15 μL enzyme solution. Kinase reactions were initiated with the addition of 15 μL of substrates-containing solution. The assay conditions were as follows; 0.2 nM mTORC1, 10 μM ATP and 50 nM NHis-tagged 4E-BP1 in 20 mM Hepes, pH 7.2, 1 mM DTT, 50 mM NaCl, 10 mM MnCl2, 0.02 mg/mL BSA, 0.01% CHAPS, 50 mM β-glycerophosphate. Following an incubation of 120 minutes at ambient temperature, 20 μL of the reaction volume was transferred to a Ni-Chelate-coated 384-well plate. The binding step of the 4E-BP1 protein proceeded for 60 minutes, followed by washing 4 times each with 50 μL of Tris-buffered saline solution (TBS). Anti-phospho-4E-BP1 rabbit-IgG (20 μL, 1:5000) in 5% BSA-TBST (0.2% Tween-20 in TBS) was added and further incubated for 60 minutes. Incubation with a secondary HRP-tagged anti-IgG was similarly performed after washing off the primary antibody (4 washes of 50 μL). Following the final wash step with TBST, 20 μL of SuperSignal ELISA Femto (Pierce Biotechnology) was added and the luminescence measured using an EnVision plate reader.

PI3Kα = PI3Kα (Homo sapiens, UniProt P42336); experiment: PI3K biochemical assay (PI3K-alpha, luciferase-luciferin ATP consumption); conditions: 3 nM enzyme, 1 μM ATP, 10 μM PIP2; percent of ATP consumed
Sequence of PI3Kα (P42336 whole entry): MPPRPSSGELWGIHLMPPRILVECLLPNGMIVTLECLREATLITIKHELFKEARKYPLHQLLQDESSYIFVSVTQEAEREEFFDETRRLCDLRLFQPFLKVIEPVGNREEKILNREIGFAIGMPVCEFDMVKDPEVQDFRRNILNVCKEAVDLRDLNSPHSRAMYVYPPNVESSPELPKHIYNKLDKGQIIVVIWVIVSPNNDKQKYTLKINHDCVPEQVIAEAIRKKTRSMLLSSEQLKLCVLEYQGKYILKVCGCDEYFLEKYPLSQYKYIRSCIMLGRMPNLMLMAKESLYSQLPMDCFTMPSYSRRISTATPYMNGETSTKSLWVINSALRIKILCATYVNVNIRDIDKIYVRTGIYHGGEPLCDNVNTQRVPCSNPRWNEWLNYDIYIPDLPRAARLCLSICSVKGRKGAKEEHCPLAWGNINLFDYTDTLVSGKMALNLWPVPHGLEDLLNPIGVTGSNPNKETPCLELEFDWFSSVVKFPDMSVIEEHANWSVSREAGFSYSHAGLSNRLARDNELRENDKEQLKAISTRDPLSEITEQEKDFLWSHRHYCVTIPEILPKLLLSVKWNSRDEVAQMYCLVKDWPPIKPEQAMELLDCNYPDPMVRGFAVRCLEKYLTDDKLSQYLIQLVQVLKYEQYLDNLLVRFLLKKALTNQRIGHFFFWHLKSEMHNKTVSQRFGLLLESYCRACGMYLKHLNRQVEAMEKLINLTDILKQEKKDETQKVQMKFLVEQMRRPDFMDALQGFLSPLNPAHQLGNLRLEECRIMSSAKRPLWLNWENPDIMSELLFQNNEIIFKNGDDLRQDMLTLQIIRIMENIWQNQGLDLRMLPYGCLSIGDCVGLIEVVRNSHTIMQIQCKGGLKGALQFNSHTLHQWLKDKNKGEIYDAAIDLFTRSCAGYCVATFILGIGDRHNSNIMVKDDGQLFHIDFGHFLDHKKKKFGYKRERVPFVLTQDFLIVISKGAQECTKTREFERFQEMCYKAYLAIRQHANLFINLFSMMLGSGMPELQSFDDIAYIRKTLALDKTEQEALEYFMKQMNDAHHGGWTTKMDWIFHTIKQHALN
Sequence of PI3Kα (P27986 whole entry partner): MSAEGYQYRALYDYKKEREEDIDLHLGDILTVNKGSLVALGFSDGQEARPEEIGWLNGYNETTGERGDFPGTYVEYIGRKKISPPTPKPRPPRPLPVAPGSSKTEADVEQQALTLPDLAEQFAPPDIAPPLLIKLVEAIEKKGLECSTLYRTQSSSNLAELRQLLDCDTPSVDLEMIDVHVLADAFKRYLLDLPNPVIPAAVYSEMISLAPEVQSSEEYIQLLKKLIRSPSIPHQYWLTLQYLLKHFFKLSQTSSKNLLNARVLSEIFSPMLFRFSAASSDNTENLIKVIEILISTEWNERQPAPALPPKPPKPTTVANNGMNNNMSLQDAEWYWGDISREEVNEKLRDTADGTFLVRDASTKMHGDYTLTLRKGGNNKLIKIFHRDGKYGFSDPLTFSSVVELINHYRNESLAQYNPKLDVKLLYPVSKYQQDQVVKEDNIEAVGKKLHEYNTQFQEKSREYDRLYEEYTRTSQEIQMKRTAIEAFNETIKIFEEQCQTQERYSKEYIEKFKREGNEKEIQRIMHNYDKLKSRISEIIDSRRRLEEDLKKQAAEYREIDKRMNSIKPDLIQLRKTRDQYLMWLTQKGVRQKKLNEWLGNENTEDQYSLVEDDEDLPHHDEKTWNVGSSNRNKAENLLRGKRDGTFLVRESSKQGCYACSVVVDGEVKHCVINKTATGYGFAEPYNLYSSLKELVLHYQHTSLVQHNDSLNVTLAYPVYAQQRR
Protocol: PI3Kα activity was measured as the percent of ATP consumed following the kinase reaction using luciferase-luciferin-coupled chemiluminescence. Reactions were conducted in 384-well white, medium binding microtiter plates (Greiner). Kinase reactions were initiated by combining test compounds, ATP, substrate (PIP2), and kinase in a 20 μL volume in a buffer solution. The standard PI3Kalpha assay buffer was composed 50 mM Tris, pH 7.5, 1 mM EGTA, 10 mM MgCl2, 1 mM DTT and 0.03% CHAPS. The standard assay concentrations for enzyme, ATP, and substrate were 3 nM, 1 μM, and 10 μM, respectively. The reaction mixture was incubated at ambient temperature for approximately 2 h. Following the kinase reaction, a 10 μL aliquot of luciferase-luciferin mix (Promega Kinase-Glo) was added and the chemiluminescence signal measured using a Victor2 or EnVision (Perkin Elmer). Total ATP consumption was limited to 40-60% and IC50 values of control compounds correlate well with literature references. Substituting PI3Kα with PI3Kβ, PI3Kγ, or […], the inhibitory activity of the compounds for the other isoforms of PI3K were measured. For the PI3Kβ and PI3Kδ assays, enzyme concentrations were 10 nM and 4 nM, respectively. For the PI3Kγ assay, enzyme concentration was 40 nM, the incubation time was 1 h, and the concentration of MgCl2 in the assay buffer was 5 mM.

SMILES	IC50 (mTOR/GbL/Raptor (mTORC1))	IC50 (PI3Kα)
Cc1cc(N2CCOc3ccc(-c4ccc5[nH]cnc5c4)cc3C2)nc(N)n1 [Compound 43, 4-[7-(1H-benzimidazol-5-yl)-2,3-dihydro-1,4-benzoxazepin-4(5H)-yl]-6-methylpyrimidin-2-amine]	500 to 2500 nM	500 to 2500 nM
COC(=O)Nc1nc2cc(-c3ccc4c(c3)CN(c3nc(N)nc(C)c3C(C)C)CCO4)ccc2[nH]1 [Compound 17, methyl (5-{4-[2-amino-6-methyl-5-(1-methylethyl)pyrimidin-4-yl]-2,3,4,5-tetrahydro-1,4-benzoxazepin-7-yl}-1H-benzimidazol-2-yl)carbamate]	≤ 100 nM	–
Cc1nc2cc(-c3ccc4c(c3)CN(c3nc(NC(C)C)nc(C)c3Cc3ccc(F)cc3)CCO4)ccc2[nH]1 [Compound 19, 5-[(4-fluorophenyl)methyl]-4-methyl-6-[7-(2-methyl-1H-benzimidazol-5-yl)-2,3-dihydro-1,4-benzoxazepin-4(5H)-yl]-N-(1-methylethyl)pyrimidin-2-amine]	100 to 500 nM	500 to 2500 nM
C=CCc1c(C)nc(CN(C)C)nc1N1CCOc2ccc(-c3ccc4nc(C)[nH]c4c3)cc2C1 [Compound 33, N,N-dimethyl-1-{4-methyl-6-[7-(2-methyl-1H-benzimidazol-6-yl)-2,3-dihydro-1,4-benzoxazepin-4(5H)-yl]-5-prop-2-en-1-ylpyrimidin-2-yl}methanamine]	≤ 100 nM	–
